Test results taken from ChEMBL document CHEMBL5360657, “Discovery of the TLR7/8 Antagonist MHV370 for Treatment of Systemic Autoimmune Diseases” (ACS Med Chem Lett, 2023).

What was measured:
[1] = Permeability of the compound by PAMPA; format: ADME
[2] = Metabolic stability in mouse liver microsomes assessed as intrinsic clearance; format: ADME, Microsome; conditions: read-out: CLH
Toll-like receptor 8 = target: T1, Toll-like receptor 8 (Homo sapiens, UniProt Q9NR97); assay: Antagonist activity at TLR8 in human PBMC cells […] assessed as reduction in IL-6 level measured after 20 hrs by AlphaLISA assay; format: cell-based
T1 sequence (Q9NR97 whole entry): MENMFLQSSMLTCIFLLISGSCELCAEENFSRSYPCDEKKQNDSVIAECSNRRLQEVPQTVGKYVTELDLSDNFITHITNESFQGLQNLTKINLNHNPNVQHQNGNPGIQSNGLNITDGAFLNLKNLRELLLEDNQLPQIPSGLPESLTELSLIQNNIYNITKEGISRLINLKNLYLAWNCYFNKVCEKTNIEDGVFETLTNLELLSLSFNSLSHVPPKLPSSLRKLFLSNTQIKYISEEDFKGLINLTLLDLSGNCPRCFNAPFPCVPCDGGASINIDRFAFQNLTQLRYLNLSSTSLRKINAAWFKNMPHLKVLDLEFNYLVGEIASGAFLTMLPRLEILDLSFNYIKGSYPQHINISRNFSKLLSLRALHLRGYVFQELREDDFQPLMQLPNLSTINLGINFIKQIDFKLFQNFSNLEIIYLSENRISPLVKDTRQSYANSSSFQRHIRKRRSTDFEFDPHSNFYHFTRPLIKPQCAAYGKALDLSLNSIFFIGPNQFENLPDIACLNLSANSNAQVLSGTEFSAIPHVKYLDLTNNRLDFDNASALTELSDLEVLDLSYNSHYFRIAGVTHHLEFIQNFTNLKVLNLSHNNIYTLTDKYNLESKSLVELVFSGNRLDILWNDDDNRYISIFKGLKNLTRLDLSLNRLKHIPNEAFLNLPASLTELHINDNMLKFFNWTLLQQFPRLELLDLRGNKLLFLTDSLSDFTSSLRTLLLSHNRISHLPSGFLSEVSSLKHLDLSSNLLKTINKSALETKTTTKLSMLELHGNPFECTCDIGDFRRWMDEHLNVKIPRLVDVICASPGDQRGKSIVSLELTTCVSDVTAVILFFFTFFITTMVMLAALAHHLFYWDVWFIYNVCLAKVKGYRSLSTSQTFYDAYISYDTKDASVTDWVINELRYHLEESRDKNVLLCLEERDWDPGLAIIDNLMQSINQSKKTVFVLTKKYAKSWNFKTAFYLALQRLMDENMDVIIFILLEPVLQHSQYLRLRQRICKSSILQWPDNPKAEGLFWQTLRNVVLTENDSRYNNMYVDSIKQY

Toll-like receptor 7 = target: T2, Toll-like receptor 7 (Homo sapiens, UniProt Q9NYK1); assay: Antagonist activity at TLR7 in human PBMC cells assessed as reduction in IFN alpha measured after 20 hrs by AlphaLISA assay; format: cell-based
T2 sequence (Q9NYK1 whole entry): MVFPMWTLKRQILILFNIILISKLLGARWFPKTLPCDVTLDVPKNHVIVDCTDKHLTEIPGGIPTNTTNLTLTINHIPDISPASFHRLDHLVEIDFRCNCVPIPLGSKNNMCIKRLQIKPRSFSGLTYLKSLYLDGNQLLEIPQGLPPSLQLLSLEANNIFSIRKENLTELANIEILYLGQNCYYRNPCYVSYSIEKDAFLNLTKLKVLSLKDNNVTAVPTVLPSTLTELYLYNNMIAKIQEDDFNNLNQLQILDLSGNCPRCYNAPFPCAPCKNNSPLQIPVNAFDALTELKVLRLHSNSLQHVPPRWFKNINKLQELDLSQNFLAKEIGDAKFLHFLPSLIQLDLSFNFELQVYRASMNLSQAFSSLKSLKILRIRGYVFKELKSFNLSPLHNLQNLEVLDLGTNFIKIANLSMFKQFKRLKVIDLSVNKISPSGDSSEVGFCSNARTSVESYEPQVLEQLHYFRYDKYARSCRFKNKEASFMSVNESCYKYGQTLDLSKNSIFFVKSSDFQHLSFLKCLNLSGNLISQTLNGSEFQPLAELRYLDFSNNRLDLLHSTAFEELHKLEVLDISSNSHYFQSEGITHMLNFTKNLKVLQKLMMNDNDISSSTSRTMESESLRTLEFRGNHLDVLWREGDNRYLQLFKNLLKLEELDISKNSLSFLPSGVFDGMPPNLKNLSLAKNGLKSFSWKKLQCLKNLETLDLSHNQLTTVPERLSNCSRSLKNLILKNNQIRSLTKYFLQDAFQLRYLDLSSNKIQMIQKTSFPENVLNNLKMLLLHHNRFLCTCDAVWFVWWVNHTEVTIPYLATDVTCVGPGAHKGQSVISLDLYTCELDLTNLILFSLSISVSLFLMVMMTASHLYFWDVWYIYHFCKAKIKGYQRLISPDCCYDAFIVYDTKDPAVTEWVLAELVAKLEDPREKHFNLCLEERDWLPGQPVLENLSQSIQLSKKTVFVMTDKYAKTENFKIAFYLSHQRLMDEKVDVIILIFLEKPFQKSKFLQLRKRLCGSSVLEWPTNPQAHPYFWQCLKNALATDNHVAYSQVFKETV

[3] = Metabolic stability in rat liver microsomes assessed as intrinsic clearance; format: ADME, Microsome; conditions: read-out: CLH
Cytochrome P450 3A4 [4] = target: T3, Cytochrome P450 3A4 (Homo sapiens, UniProt P08684); assay: Inhibition of CYP3A4 (unknown origin); format: ADME
Toll-like receptor 9 = target: T4, Toll-like receptor 9 (Homo sapiens, UniProt Q9NR96); assay: Antagonist activity at TLR9 in human PBMC cells assessed as reduction in IFN alpha measured after 20 hrs by AlphaLISA assay; format: cell-based
T4 sequence (Q9NR96 whole entry): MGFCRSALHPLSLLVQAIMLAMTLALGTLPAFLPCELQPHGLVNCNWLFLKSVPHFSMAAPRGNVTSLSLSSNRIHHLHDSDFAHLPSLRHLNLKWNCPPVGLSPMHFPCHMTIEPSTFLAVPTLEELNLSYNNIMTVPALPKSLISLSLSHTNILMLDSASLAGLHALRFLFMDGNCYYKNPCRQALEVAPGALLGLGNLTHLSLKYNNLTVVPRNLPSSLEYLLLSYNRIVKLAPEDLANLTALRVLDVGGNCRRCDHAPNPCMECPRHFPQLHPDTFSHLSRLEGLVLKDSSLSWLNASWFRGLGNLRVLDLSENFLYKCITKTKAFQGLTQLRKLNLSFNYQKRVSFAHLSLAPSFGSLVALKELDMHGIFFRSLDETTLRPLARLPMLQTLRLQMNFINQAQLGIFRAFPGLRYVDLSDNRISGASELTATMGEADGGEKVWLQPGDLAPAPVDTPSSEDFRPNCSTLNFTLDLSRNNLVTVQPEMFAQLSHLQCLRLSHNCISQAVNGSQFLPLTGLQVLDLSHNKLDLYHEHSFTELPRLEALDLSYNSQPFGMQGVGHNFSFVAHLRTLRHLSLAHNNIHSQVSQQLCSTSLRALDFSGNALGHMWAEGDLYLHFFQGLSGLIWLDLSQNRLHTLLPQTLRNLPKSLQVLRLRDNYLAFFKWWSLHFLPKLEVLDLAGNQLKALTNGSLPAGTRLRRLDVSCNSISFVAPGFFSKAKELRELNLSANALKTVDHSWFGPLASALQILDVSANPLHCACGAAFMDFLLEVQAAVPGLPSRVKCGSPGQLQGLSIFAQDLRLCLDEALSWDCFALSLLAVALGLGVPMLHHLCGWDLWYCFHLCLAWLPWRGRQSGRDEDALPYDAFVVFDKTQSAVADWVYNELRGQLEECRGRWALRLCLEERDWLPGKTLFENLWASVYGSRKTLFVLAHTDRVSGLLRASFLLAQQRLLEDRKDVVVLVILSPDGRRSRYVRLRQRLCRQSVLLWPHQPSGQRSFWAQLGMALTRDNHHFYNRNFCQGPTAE

[5] = Metabolic stability in human liver microsomes assessed as intrinsic clearance; format: ADME, Microsome; conditions: read-out: CLH
Cytochrome P450 3A4 [6] = target: T3, Cytochrome P450 3A4; assay: Time dependent inhibition of CYP3A4 (unknown origin) assessed as Kobs; format: ADME; also: test concentration or dose not given here
[7] = target: Voltage-gated inwardly rectifying potassium channel KCNH2 (Homo sapiens, UniProt Q12809); assay: Displacement of [3H]-dofetilite from human ERG (unknown origin); format: toxicity
[8] = Solubility of the compound; format: physicochemical

T3 sequence (P08684 whole entry): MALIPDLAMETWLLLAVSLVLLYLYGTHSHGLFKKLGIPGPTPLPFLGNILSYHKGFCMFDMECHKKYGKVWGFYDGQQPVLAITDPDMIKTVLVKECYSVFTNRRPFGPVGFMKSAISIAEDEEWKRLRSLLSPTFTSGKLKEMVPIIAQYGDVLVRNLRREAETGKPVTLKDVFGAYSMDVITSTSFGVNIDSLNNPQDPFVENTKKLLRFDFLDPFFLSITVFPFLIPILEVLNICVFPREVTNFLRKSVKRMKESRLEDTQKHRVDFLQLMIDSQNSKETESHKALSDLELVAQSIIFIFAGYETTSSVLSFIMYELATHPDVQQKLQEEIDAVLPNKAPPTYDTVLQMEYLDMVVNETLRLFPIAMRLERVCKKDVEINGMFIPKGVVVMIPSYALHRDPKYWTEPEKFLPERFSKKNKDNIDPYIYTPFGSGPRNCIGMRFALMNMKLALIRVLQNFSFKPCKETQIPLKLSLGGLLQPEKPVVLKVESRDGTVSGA
Chain of Voltage-gated inwardly rectifying potassium channel KCNH2 (Q12809 whole entry): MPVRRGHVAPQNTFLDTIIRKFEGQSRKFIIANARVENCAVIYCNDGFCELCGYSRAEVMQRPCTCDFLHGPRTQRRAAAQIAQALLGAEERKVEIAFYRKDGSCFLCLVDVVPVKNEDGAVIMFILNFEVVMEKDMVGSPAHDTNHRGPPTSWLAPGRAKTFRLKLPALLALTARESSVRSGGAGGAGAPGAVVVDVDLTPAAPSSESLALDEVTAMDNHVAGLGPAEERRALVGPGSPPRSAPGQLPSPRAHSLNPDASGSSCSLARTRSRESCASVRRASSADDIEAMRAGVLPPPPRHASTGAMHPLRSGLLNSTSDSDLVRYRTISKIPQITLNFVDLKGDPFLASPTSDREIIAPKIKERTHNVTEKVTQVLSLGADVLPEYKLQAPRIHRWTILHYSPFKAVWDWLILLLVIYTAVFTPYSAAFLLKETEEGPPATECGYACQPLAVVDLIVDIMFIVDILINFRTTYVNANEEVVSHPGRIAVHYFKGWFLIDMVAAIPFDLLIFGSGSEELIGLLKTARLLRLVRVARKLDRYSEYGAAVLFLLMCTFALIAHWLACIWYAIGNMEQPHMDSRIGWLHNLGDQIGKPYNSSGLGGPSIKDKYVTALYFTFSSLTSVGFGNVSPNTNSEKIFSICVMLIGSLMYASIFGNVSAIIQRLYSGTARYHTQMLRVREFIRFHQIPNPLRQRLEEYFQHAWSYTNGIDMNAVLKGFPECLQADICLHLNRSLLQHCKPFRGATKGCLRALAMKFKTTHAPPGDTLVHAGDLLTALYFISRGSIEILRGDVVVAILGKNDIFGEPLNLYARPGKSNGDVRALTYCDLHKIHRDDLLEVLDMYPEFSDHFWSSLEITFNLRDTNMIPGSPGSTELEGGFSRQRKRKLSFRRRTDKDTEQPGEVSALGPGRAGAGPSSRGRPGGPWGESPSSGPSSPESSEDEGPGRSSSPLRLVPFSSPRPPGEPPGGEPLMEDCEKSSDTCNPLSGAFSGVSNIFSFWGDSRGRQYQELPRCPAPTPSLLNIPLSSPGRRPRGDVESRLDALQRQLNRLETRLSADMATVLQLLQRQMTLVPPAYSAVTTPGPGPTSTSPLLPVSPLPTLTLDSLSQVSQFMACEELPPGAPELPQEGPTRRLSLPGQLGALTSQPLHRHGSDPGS

Row | log(permeability) [1] | microsomal CLint [2] | IC50 (Toll-like receptor 8) | IC50 (Toll-like receptor 7) | microsomal CLint [3] | IC50 (Cytochrome P450 3A4 [4]) | IC50 (Toll-like receptor 9) | microsomal CLint [5] | Kobs (Cytochrome P450 3A4 [6]) | solubility [8] | SMILES | IC50 [7]
1 | -3.7 | – | 140 nM | – | 656 µL/min/mg | 8600 nM | – | 423 µL/min/mg | 0.011 min⁻¹ | > 175 µM | Cc1cc(N2CCc3c(c(C)nn3CC34CCC(NCC(F)F)(CC3)CC4)C2)c2cnn(C)c2n1 | > 30000 nM
2 | -4.6 | – | > 10000 nM | – | 45 µL/min/mg | 24000 nM | 5200 nM | 63 µL/min/mg | 0.022 min⁻¹ | > 175 µM | CC(=O)NC12CCC(Cn3nc(C)c4c3CCN(c3cc(C)nc5c3cnn5C)C4)(CC1)CC2 | > 30000 nM
3 | -5.4 | < 15 µL/min/mg | 190 nM | 41 nM | 29 µL/min/mg | – | 3000 nM | 31 µL/min/mg | – | – | Cc1cc(N2CCc3c(c(C)nn3CC34CCC(NCC(=O)N(C)C)(CC3)CC4)C2)c2cnn(C)c2n1 | –
4 | -5.3 | 120 µL/min/mg | 190 nM | – | < 15 µL/min/mg | > 50000 nM | 780 nM | < 15 µL/min/mg | 0.023 min⁻¹ | – | CN[C@H](C)C(=O)NC12CCC(Cn3nc(C)c4c3CCN(c3cc(C)nc5c3cnn5C)C4)(CC1)CC2 | > 30000 nM

Further lines, the compound ahead of its results:

Row | SMILES | log(permeability) [1] | microsomal CLint [2] | IC50 (Toll-like receptor 8) | IC50 (Toll-like receptor 7) | microsomal CLint [3] | IC50 (Cytochrome P450 3A4 [4]) | IC50 (Toll-like receptor 9) | microsomal CLint [5] | Kobs (Cytochrome P450 3A4 [6]) | solubility [8] | IC50 [7]
5 | Cc1cc(N2CCc3c(c(C)nn3CC34CCC(NC(=O)[C@@H]5CNCCO5)(CC3)CC4)C2)c2cnn(C)c2n1 | -5.2 | 93 µL/min/mg | 67 nM | 2 nM | 24 µL/min/mg | 5500 nM | 190 nM | 135 µL/min/mg | – | – | –
6 | Cc1cc(N2CCc3c(c(C)nn3CC34CCC(NC(=O)CN(C)C)(CC3)CC4)C2)c2cnn(C)c2n1 | -4.3 | 104 µL/min/mg | 25 nM | 6 nM | 33 µL/min/mg | > 50000 nM | 730 nM | 147 µL/min/mg | 0.006 min⁻¹ | – | > 30000 nM
7 | Cc1cc(N2CCc3c(c(C)nn3CC34CCC(NC(=O)CN5CCCC5)(CC3)CC4)C2)c2cnn(C)c2n1 | -4.1 | 531 µL/min/mg | – | 4 nM | < 15 µL/min/mg | – | 1200 nM | 329 µL/min/mg | – | – | –
8 | Cc1cc(N2CCc3c(c(C)nn3CC34CCC(NC(=O)[C@H]5COCCN5)(CC3)CC4)C2)c2cnn(C)c2n1 | -5.3 | 382 µL/min/mg | 220 nM | 13 nM | < 15 µL/min/mg | > 50000 nM | 1900 nM | 54 µL/min/mg | 0.018 min⁻¹ | – | > 30000 nM
9 | Cc1cc(N2CCc3c(c(C)nn3CC34CCC(N5CCOCC5)(CC3)CC4)C2)c2cnn(C)c2n1 | -4.1 | 246 µL/min/mg | 30 nM | – | 175 µL/min/mg | > 50000 nM | 2100 nM | 130 µL/min/mg | 0.038 min⁻¹ | > 175 µM | > 30000 nM
10 | Cc1cc(N2CCc3c(c(C)nn3CC34CCC(N5CCN(C)C(=O)C5)(CC3)CC4)C2)c2cnn(C)c2n1 | -5 | 103 µL/min/mg | 400 nM | 56 nM | 87 µL/min/mg | > 50000 nM | > 7300 nM | 39 µL/min/mg | 0.015 min⁻¹ | – | > 30000 nM
11 | CCN(C)CC(=O)NC12CCC(Cn3nc(C)c4c3CCN(c3cc(C)nc5c3cnn5C)C4)(CC1)CC2 | -4.1 | > 700 µL/min/mg | 7 nM | < 5 nM | 48 µL/min/mg | 28000 nM | – | 463 µL/min/mg | 0.013 min⁻¹ | – | > 30000 nM
12 | Cc1cc(N2CCc3c(c(C)nn3CC34CCC(NC(=O)CN5CCC5)(CC3)CC4)C2)c2cnn(C)c2n1 | -4.6 | – | 60 nM | 1 nM | 37 µL/min/mg | 17000 nM | 280 nM | 90 µL/min/mg | 0.044 min⁻¹ | – | > 30000 nM
13 | Cc1cc(N2CCc3c(c(C)nn3CC34CCC(N5CCN(C)CC5=O)(CC3)CC4)C2)c2cnn(C)c2n1 | -4.3 | 251 µL/min/mg | – | 19 nM | 50 µL/min/mg | > 50000 nM | 5500 nM | 71 µL/min/mg | – | – | > 30000 nM
14 | Cc1cc(N2CCc3c(c(C)nn3CC34CCC(N5CCC5)(CC3)CC4)C2)c2cnn(C)c2n1 | -4.7 | 65 µL/min/mg | 120 nM | 5 nM | 30 µL/min/mg | > 50000 nM | 530 nM | 96 µL/min/mg | 0.015 min⁻¹ | – | > 30000 nM
